# According to US20240140986A1, “SYNTHETIC URSOLIC ACID DERIVATIVES AND METHODS OF USE THEREOF” (REATA PHARMACEUTICALS, INC., priority 2021, published 2024):
# Read-outs that look alike come from different tables or passages of the source.
# What was measured:
# [1] = test system: Nrf2 / ARE-dependent luciferase in AREc32 reporter cell line; test: AREc32 luciferase reporter activation (Nrf2 induction); assay type: cell-based, human; settings: for EC (2-fold): Homo sapiens, Arec32; for Relative Avg AREc32 EC2X Relative to RTA402 (fold): ratio to RTA402
# Experimental: Effect on Ludferase Reporter Activation. Nrf2 is a transcription factor that binds to the antioxidant response element (ARE) sequence in the promoter regions of its target genes. AREc32 reporter cell line (derived from human breast carcinoma MCF7 cells) was obtained was from CXR Bioscience Limited (Dundee, UK) and cultured in DMEM (low glucose) supplemented with 10% FBS, 1% penicillin/streptomycin, and 0.8 mg/ml Geneticin (G418). This cell line is stably transfected with a luciferase reporter gene under the transcriptional control of eight copies of the rat GSTA2 ARE sequence (5′-GTGACAAAGCA-3′) (Wang et al., 2006). Expression of Firefly luciferase from this reporter plasmid is controlled by binding of Nrf2 to these ARE sequences. Measurement of ARE-dependent luciferase activity allows quantitative assessment of Nrf2 induction. AREc32 cell line has previously been used in studies characterizing different Nrf2 activators (Dinkova-Kostova & Wang, 2011; Roubalová et al., 2016; Roubalová et al, 2017; Wu et al, 2012).
# The effect of several compounds disclosed herein on luciferase reporter activation was assessed in the AREc32 reporter cell line (see Table 10 and Table 11). This cell line is derived from human breast carcinoma MCF-7 cells and is stably transfected with a luciferase reporter gene under the transcriptional control of eight copies of the antioxidant response element from the rat Gsta2 gene, an Nrf2 target gene (Frilling et al., 1990). AREc32 cells were plated in black 96-well plates in 200 μL media at 20,000 cells per well. Twenty-four hours after plating, cells were treated with vehicle (DMSO) or test compounds at concentrations ranging from 0.03 to 1000 nM for nineteen hours. Media was removed and 100 μL of 1:1 mixture of the One-Glo Luciferase assay reagent and culture medium was added to each well. After incubation for 5 min at room temperature, the luminescence signal was measured on a PHERAstar plate reader. The EC2X value was determined using Excel and GraphPad Prism software. The fold increase in luminescence signal for cells treated with each concentration of compound relative to cells treated with vehicle was determined and a dose-response curve was generated. The dose-response curve was fit using nonlinear regression analysis and used to extrapolate the EC2X value. The EC2X value is defined as the concentration of test compound required to increase the luminescence signal 2-fold above levels in vehicle-treated samples.
# [2] = test system: IFNγ-induced NO production in RAW 264.7 cells; test: Nitric Oxide Suppression Assay (IFNγ-induced NO, Griess nitrite readout); assay type: cell-based, mouse; settings: for IC50: Mus musculus; for Avg NO IC50 Relative to RTA402 (fold): Table 2, ratio to RTA402
# Experimental: Tissue Culture: RAW 264.7, a mouse macrophage cell line, was obtained from American Type Culture Collection (Manassas VA) and maintained in the log phase of growth in Roswell Park Memorial Institute Medium 1640 (RPMI 1640) supplemented with 10% heat inactivated fetal bovine serum and 1% penicillin-streptomycin. Cells were cultured and maintained in a humidified incubator at 37° C. under 5% C02. Cells were sub-cultured every 2-4 days. All cell culture supplies were obtained from Life Technologies (Grand Island, NY) and VWR (Radnor, PA).
# Nitric Oxide Suppression Assay. RAW 264.7 cells were plated 1 day in advance of experimental treatments at a concentration of 30,000 cells per well onto Falcon-96 well clear bottom plates (Corning, NY) in a total volume of 200 μL per well using RPMI 1640 supplemented with 0.5% fetal bovine serum and 1% penicillin-streptomycin. The next day, cells were pretreated with compounds serially diluted from 1000×stocks. All compounds were dissolved in dimethyl sulfoxide (DMSO) usually at 10 mM stock solutions. Compounds were subsequently diluted in DMSO and RPMI 1640. Each well received a final concentration of 0.1% DMSO. Cells were pretreated for 2 hours and incubation at 37° C., followed by treatment with 20 ng/mL of interferon gamma (R&D Systems, Minneapolis, MN) per well for 24 hours. The next day, a nitrite standard was serially diluted from 100 μM to 1.6 μM in RPMI 1640. Afterwards, 50 μL of cell culture supernatant was transferred from each well into a new Falcon-96 well clear bottom plate. Nitrite was measured as surrogate for nitric oxide using Promega's Griess Detection Kit #G2930 (Madison, WI) which involves the addition of 50 μL of the provided sulfanilamide solution to each well of the transferred cell culture supernatant and standards, followed by a 10-minute incubation at room temperature. Next, 50 μL of the provided N-1-napthylethylenediamine dihydrochloride (NED) solution was added to the sulfanilamide reaction and incubated for 10 minutes at room temperature in the dark. Afterwards, air bubbles were removed using ethanol vapor and absorbance was measured using a Spectramax M2e plate reader with a wavelength set to 525 nm. Viability was assessed using WST-1 cell proliferation reagent from Roche (Basel, Switzerland). After media was removed for the Nitric Oxide suppression assay, 15 μL of WST-1 reagent was added to each well of cells. Plates were briefly mixed on an orbital shaker and the cells were incubated at 37° C. for 30-90 minutes. Absorbance was measured using a Spectramax M2e plate reader with wavelengths set to 440 nm and 700 nm.
# For the ability of compounds to suppress the increase in nitric oxide release caused by interferon gamma, the absolute amount of nitrite that was produced in each well was extrapolated from the nitrite standards using a linear regression fit. All values were then normalized to the DMSO-interferon gamma treated wells and plotted as percent nitric oxide. IC50 values were calculated using Excel and/or GraphPad Prism (San Diego, CA).
# [3] = Table 2, concentration increasing luminescence 2-fold above vehicle, 19 h treatment, read-out: Avg AREc32 EC2X (nM) (Mean ± SD)
# [4] = RAW264.7, Table 2, RAW 264.7 cells, 2 h pretreatment, 20 ng/mL interferon gamma 24 h, read-out: Avg NO IC50 (nM) (Mean ± SD)
# [5] = Table 3, ursolic acid derivatives, read-out: Avg ARE EC-2X (nM) (Mean ± SD)
# [6] = RAW264.7, Table 3, ursolic acid derivatives, read-out: Avg NO IC50 (nM) (Mean ± SD)
# [7] = Table 3, oleanolic acid derivative analogs, read-out: Avg ARE EC-2X
# [8] = RAW264.7, Table 3, oleanolic acid derivative analogs, read-out: Avg NO IC50
SMILES,"EC (2-fold) [1, 3] [nM]",Relative Avg AREc32 EC2X Relative to RTA402 (fold) ([1]; Table 2),"IC50 [2, 4] [nM]",Avg NO IC50 Relative to RTA402 (fold) [2] [fold],"EC (2-fold) [1, 5] [nM]","IC50 [2, 6] [nM]","EC (2-fold) [1, 7] [nM]","IC50 [2, 8] [nM]"
COC(=O)CC[C@]12CC[C@@H](C)[C@H](C)[C@H]1[C@H]1C(=O)C=C3[C@@]4(C)C=C(C#N)C(=O)C(C)(C)[C@@H]4CC[C@@]3(C)[C@]1(C)CC2 [Compound T76],8.7 ± 0.63,1.1 ± 0.3,14.8 ± 2.8,9.13 ± 1.38,,,,
CCNC(=O)CC[C@]12CC[C@@H](C)[C@H](C)[C@H]1[C@H]1C(=O)C=C3[C@@]4(C)C=C(C#N)C(=O)C(C)(C)[C@@H]4CC[C@@]3(C)[C@]1(C)CC2 [Compound T79],4.32 ± 0.5,0.361 ± 0.028,4.5 ± 1.84,1.25 ± 0.13,,,,
C[C@@H]1[C@H]2[C@H]3C(=O)C=C4[C@@]5(C)C=C(C#N)C(=O)C(C)(C)[C@@H]5CC[C@@]4(C)[C@]3(C)CC[C@@]2(N2CCC2=O)CC[C@H]1C [Compound T74],20 ± 2,1.67 ± 0.13,21 ± 7.6,5.91 ± 0.94,20 ± 2,21 ± 7.6,,
C[C@@H]1[C@H]2[C@H]3C(=O)C=C4[C@@]5(C)C=C(C#N)C(=O)C(C)(C)[C@@H]5CC[C@@]4(C)[C@]3(C)CC[C@@]2(CN2CCC2)CC[C@H]1C [Compound T55],14.4 ± 1.3,1.12 ± 0.09,14.6 ± 3,5.21 ± 2.77,14.4 ± 1.3,14.6 ± 3,,
C[C@@H]1[C@H]2[C@H]3C(=O)C=C4[C@@]5(C)C=C(C#N)C(=O)C(C)(C)[C@@H]5CC[C@@]4(C)[C@]3(C)CC[C@@]2(CNC(=O)C2CCC2)CC[C@H]1C [Compound T25],2.88 ± 0.13,0.259 ± 0.036,5.11 ± 1.69,1.49 ± 0.35,,,,
C[C@@H]1[C@H]2[C@H]3C(=O)C=C4[C@@]5(C)C=C(C#N)C(=O)C(C)(C)[C@@H]5CC[C@@]4(C)[C@]3(C)CC[C@@]2(CN2NCCC2=O)CC[C@H]1C [Compound T54],4.92 ± 1.14,0.403 ± 0.103,6.42 ± 1.07,1.84 ± 0.45,4.92 ± 1.14,6.42 ± 1.07,,
"CC1(C)CC[C@]2(CN3NCCC3=O)CC[C@]3(C)[C@H](C(=O)C=C4[C@@]5(C)C=C(C#N)C(=O)C(C)(C)[C@@H]5CC[C@]43C)[C@@H]2C1 [CC54, reference compound]",,,,,,,11.7,8.6
CCS(=O)(=O)NC[C@]12CC[C@@H](C)[C@H](C)[C@H]1[C@H]1C(=O)C=C3[C@@]4(C)C=C(C#N)C(=O)C(C)(C)[C@@H]4CC[C@@]3(C)[C@]1(C)CC2 [Compound T32],4.2 ± 1.3,0.399 ± 0.111,5.34 ± 1.15,2.52 ± 1.11,,,,
C[C@@H]1[C@H]2[C@H]3C(=O)C=C4[C@@]5(C)C=C(C#N)C(=O)C(C)(C)[C@@H]5CC[C@@]4(C)[C@]3(C)CC[C@@]2(C(=O)NC2CC2)CC[C@H]1C [Compound T86],24.8 ± 6.4,2.12 ± 0.16,28.5 ± 6.5,7.09 ± 1.54,,,,
C[C@@H]1[C@H]2[C@H]3C(=O)C=C4[C@@]5(C)C=C(C#N)C(=O)C(C)(C)[C@@H]5CC[C@@]4(C)[C@]3(C)CC[C@@]2(N)CC[C@H]1C [Compound T16],20.5 ± 6,1.61 ± 0.084,15 ± 3.7,7.63 ± 2.99,20.5 ± 6,15 ± 3.7,,
C[C@@H]1[C@H]2[C@H]3C(=O)C=C4[C@@]5(C)C=C(C#N)C(=O)C(C)(C)[C@@H]5CC[C@@]4(C)[C@]3(C)CC[C@@]2(n2cnnn2)CC[C@H]1C [Compound T61],7.53 ± 2.25,0.601 ± 0.122,12.5 ± 7.3,4.11 ± 0.26,,,,
"CC1(C)CC[C@]2(CNCCO)CC[C@]3(C)[C@H](C(=O)C=C4[C@@]5(C)C=C(C#N)C(=O)C(C)(C)[C@@H]5CC[C@]43C)[C@@H]2C1 [CC40, reference compound]",,,,,,,21.8,7.5
Cc1noc([C@]23CC[C@@H](C)[C@H](C)[C@H]2[C@H]2C(=O)C=C4[C@@]5(C)C=C(C#N)C(=O)C(C)(C)[C@@H]5CC[C@@]4(C)[C@]2(C)CC3)n1 [Compound T1],8.44 ± 1.56,0.744 ± 0.121,3.76 ± 1.35,2.53 ± 0.74,,,,
"Cc1nnc([C@]23CCC(C)(C)C[C@H]2[C@H]2C(=O)C=C4[C@@]5(C)C=C(C#N)C(=O)C(C)(C)[C@@H]5CC[C@@]4(C)[C@]2(C)CC3)o1 [CC69, reference compound]",,,,,,,9.81,2.2
